In PMC4451461, “SimC7 Is a Novel NAD(P)H-Dependent Ketoreductase Essential for the Antibiotic Activity of the DNA Gyrase Inhibitor Simocyclinone” (Journal of Molecular Biology, 2015):

Experiments:
Assay type in all cases: biochemical
[1] = molecular target: T1, DNA gyrase subunit A (GyrA) (Escherichia coli, UniProt P0AES4); experiment: DNA gyrase supercoiling inhibition; SPR showed only weak, non-specific binding to GyrA; set-up: DNA gyrase; with GyrB
Target sequence in this assay (P0AES4 2-875): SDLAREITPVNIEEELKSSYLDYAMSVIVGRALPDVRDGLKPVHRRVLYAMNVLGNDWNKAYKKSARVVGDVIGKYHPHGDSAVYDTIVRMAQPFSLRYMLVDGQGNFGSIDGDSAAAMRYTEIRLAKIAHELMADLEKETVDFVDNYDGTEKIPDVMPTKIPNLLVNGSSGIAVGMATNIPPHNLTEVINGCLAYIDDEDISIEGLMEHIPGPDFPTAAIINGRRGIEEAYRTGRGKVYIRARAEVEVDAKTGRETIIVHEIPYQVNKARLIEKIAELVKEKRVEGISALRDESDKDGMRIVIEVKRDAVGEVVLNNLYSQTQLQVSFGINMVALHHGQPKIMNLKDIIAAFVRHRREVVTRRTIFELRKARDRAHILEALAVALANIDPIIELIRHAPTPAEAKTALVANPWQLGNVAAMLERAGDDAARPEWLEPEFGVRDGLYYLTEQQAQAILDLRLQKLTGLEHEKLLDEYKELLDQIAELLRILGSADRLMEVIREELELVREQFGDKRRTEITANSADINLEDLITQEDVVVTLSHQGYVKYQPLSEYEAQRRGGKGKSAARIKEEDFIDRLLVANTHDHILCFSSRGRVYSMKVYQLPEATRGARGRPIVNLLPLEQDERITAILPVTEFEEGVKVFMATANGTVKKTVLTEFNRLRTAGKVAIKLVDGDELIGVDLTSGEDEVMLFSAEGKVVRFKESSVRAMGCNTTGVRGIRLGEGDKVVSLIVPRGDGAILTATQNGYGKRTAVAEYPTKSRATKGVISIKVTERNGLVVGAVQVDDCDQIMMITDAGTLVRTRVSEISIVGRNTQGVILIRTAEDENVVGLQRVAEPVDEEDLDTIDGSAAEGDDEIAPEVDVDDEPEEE

[2] = molecular target: T1, DNA gyrase subunit A (GyrA); experiment: DNA gyrase inhibition (supercoiling) assay; set-up: DNA gyrase; with GyrB
Target sequence in this assay (P0AES4 2-875): as above

[3] = molecular target: T2, SimC7 (Streptomyces antibioticus, UniProt G9VYV4); experiment: HPLC-UV ketoreductase assay ([…] NAD(P)H)
T2 construct: N-terminally His-tagged SimC7
T2 sequence (G9VYV4 1-284): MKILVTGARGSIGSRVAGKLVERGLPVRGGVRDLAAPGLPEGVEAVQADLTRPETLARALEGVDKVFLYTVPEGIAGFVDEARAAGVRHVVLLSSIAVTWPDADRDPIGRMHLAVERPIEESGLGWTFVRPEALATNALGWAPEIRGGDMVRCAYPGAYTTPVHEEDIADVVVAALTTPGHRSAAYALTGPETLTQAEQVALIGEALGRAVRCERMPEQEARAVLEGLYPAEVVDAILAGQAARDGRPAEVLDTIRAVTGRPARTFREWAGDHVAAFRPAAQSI

[4] = molecular target: T1, DNA gyrase subunit A (GyrA); experiment: SPR to GyrA N-terminal domain (data not shown); DNA gyrase supercoiling inhibition; set-up: GyrA N-terminal domain (SPR); DNA gyrase (supercoiling); with GyrB (supercoiling assay)
Source text: SPR to GyrA N-terminal domain (data not shown); DNA gyrase supercoiling inhibition on DNA gyrase subunit A (GyrA) | SD8 bound to the GyrA N-terminal domain with a similar affinity to that reported previously
Target sequence in this assay (P0AES4 2-523): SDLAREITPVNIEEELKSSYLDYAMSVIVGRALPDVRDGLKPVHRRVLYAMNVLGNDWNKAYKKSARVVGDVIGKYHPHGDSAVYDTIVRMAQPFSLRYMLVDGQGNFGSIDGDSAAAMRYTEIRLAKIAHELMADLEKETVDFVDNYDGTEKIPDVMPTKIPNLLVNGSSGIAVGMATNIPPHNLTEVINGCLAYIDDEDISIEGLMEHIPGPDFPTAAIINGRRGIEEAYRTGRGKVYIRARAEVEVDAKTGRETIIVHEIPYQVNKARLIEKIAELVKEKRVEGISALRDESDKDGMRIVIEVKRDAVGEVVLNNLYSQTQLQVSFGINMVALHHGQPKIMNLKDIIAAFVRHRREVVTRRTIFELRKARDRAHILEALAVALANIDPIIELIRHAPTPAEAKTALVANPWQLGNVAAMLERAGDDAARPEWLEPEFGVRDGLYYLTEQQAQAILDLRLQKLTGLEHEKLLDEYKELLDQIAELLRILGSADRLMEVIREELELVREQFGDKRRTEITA

[5] = molecular target: T2, SimC7; experiment: HPLC-UV ketoreductase assay; also oxidised as substrate in the reverse reaction

Compound `CC(=O)O[C@@H]1[C@@H](C)O[C@@H](c2ccc3c(c2O)C(=O)[C@]24O[C@@]2(C3=O)[C@@]2(O)C(=O)C=C(C)C[C@@]2(O)C[C@@H]4O)C[C@H]1OC(=O)/C=C/C=C/C=C/C=C/C(=O)Nc1c(O)c2ccc(O)c(Cl)c2oc1=O` [7-oxo-SD8] has an IC50 [1] of 50 to 100 µM.

With `COC(=O)/C=C/C=C/C=C/C=C/C(=O)Nc1c(O)c2ccc(O)c(Cl)c2oc1=O` [MGD8N2A] the IC50 [2] was 25 µM.

`NC(=O)C1=CN([C@@H]2O[C@H](COP(=O)(O)OP(=O)(O)OC[C@H]3O[C@@H](n4cnc5c(N)ncnc54)[C@H](O)[C@@H]3O)[C@@H](O)[C@H]2O)C=CC1` [NADH] was tested, and the “HPLC-UV ketoreductase assay (0.3 mM NAD(P)H)” value [3] was “SimC7 was able to use NADH or NADPH for the reduction (Fig. 6b)”.

With `NC(=O)C1=CN([C@@H]2O[C@H](COP(=O)(O)OP(=O)(O)OC[C@H]3O[C@@H](n4cnc5c(N)ncnc54)[C@H](OP(=O)(O)O)[C@@H]3O)[C@@H](O)[C@H]2O)C=CC1` [NADPH] the “HPLC-UV ketoreductase assay (0.3 mM NAD(P)H)” value [3] was “SimC7 was able to use NADH or NADPH for the reduction (Fig. 6b) but showed a preference for NADPH”.

Compound `CC(=O)O[C@@H]1[C@@H](C)O[C@@H](c2ccc3c(c2O)[C@H](O)[C@]24O[C@@]2(C3=O)[C@@]2(O)C(=O)C=C(C)C[C@@]2(O)C[C@@H]4O)C[C@H]1OC(=O)/C=C/C=C/C=C/C=C/C(=O)Nc1c(O)c2ccc(O)c(Cl)c2oc1=O` [SD8, simocyclinone D8] has an IC50 [4] of 0.1 to 0.5 µM.

With `CC(=O)O[C@@H]1[C@@H](C)O[C@@H](c2ccc3c(c2O)[C@H](O)[C@]24O[C@@]2(C3=O)[C@@]2(O)C(=O)C=C(C)C[C@@]2(O)C[C@@H]4O)C[C@H]1OC(=O)/C=C/C=C/C=C/C=C/C(=O)Nc1c(O)c2ccc(O)c(Cl)c2oc1=O` [compound 2, simocyclinone D8] the “HPLC-UV ketoreductase assay; also oxidised as substrate in the reverse reaction” value [5] was “It was also possible to assay the reaction in the reverse direction, following the oxidation of SD8 to 7-oxo-SD8 by SimC7”.
